# Experimental data: PMC7251097, “Aspartate/asparagine-β-hydroxylase: a high-throughput mass spectrometric assay for discovery of small molecule inhibitors” (Scientific Reports, 2020)
# Structures can show the parent of a compound that is named as a salt. Where two headings read alike, the source gives them in different places.
# Biological target: T1, His6-AspH315–758 (human aspartate/asparagine-β-hydroxylase, AspH) (Homo sapiens, UniProt Q12797)
# T1 construct: N-Terminally His6-tagged human AspH315–758 (His6-AspH315–758) was produced in E. coli BL21 (DE3) cells; made in house; host or cells: E. coli BL21 (DE3), pET-28a(+) vector
# T1 sequence (Q12797 315-758): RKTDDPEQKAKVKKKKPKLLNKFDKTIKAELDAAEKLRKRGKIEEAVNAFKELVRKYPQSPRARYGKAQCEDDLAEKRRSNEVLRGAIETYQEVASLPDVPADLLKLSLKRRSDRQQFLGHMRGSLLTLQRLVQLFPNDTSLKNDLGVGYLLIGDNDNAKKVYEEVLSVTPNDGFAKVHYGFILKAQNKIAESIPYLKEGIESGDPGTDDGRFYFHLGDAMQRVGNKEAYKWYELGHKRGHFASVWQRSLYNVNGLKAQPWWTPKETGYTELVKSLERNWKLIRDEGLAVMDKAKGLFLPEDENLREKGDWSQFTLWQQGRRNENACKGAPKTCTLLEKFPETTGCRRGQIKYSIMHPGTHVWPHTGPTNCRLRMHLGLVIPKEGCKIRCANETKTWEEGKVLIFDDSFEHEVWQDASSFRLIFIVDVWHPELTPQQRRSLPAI
# Test: SPE-MS AspH inhibition assay (LOPAC screen at fixed 20 μM and IC50 dose-response), hydroxylation of cyclic peptide hFX-CP101–119
# Format: biochemical
# [1] = LOPAC Plate 4, compound at 20 uM
# [2] = LOPAC Plate 4, compound at 20 uM, substrate conversion
# [3] = LOPAC compound at 20uM, plate 2, conversion of substrate peptide
# [4] = LOPAC compound at 20uM, plate 2, normalised to DMSO and 2,4-PDCA controls
# [5] = LOPAC compound at fixed 20 uM, plate 1, normalised to DMSO and 2,4-PDCA controls
# [6] = LOPAC compound at fixed 20 uM, substrate conversion, plate 1
# [7] = LOPAC Plate 4, compound at 20 uM, read-out: % inhibition
# [8] = LOPAC compound at 20uM, plate 3, conversion of substrate peptide
compound,measurement,setting,value
Fc1ccc2[nH]c(CN3CCN(c4ccccn4)CC3)cc2c1 [CP-226269],% conversion,,39.74%
same,Plate 5 (% conversion),,37.75%
same,Plate 5 (% inhibition),,-4.22%
Nc1nc2c(ncn2[C@@H]2O[C@H](CO)[C@@H](O)[C@@H]2O)c(=O)[nH]1.O [Ara-G hydrate],% inhibition,[1],-11.19%
same,% conversion,[2],40.29%
O=C(O)CNC(=O)C(CS)Cc1ccccc1 (racemic) [DL-Thiorphan],% conversion,,36.55%
same,inhibition at 20 µM,,-0.22%
CC(C)(C)c1cc(C(C)(C)C)c2c(c1)C(O)(C(F)(F)F)C(=O)O2 (racemic) [rac BHFF],% inhibition,[1],72.02%
same,% conversion,[2],11.89%
CC(C)(C)NCC(O)COc1cccc2[nH]c(=O)[nH]c12.Cl (racemic) [(±)-CGP-12177A hydrochloride],Plate 2 (% conversion),[3],36.58%
same,Plate 2 (% inhibition),[4],-1.88%
NCC(CC(=O)O)c1ccc(Cl)cc1 (racemic) [(±)-Baclofen],Plate 1 (% inhibition),[5],-1.99%
same,Plate 1 (% conversion),[6],36.54%
Cl.NC1C=CC=C(C(=O)O)C1 (stereo not shown) [Gabaculine hydrochloride],Plate 1 (% conversion),,33.90%
same,Plate 1 (% inhibition),,5.88%
N[C@@H](CCCC(=O)O)C(=O)O [L-2-aminoadipic acid],Plate 1 (% inhibition),[5],-2.85%
same,Plate 1 (% conversion),[6],36.83%
COc1cc(C(=O)OCCCN2CCCN(CCCOC(=O)c3cc(OC)c(OC)c(OC)c3)CC2)cc(OC)c1OC [Dilazep hydrochloride],Plate 2 (% conversion),[3],41.49%
same,inhibition at 20 µM,"LOPAC compound at 20uM, plate 2, normalised to DMSO and 2,4-PDCA controls, read-out: Plate 2 (% inhibition)",-16.5%
Cl.c1ccc([C@H]2CN3CCSC3=N2)cc1 [(-)-Tetramisole hydrochloride],Plate 3 (% conversion),,32.10%
CC(=O)SCC[N+](C)(C)C.[Cl-] [Acetylthiocholine chloride],Plate 1 (% conversion),,37.52%
same,Plate 1 (% inhibition),,-4.90%
"N[C@H](C(=O)O)[C@H]1C[C@@H]1C(=O)O [(2S,1S,2S)-2-(carboxycyclopropyl)glycine]",Plate 2 (% conversion),[3],32.34%
same,Plate 2 (% inhibition),[4],10.80%
"Cc1ccc(C(=O)Nc2ccc(S(=O)(=O)[O-])c3cc(S(=O)(=O)[O-])cc(S(=O)(=O)[O-])c23)cc1NC(=O)c1cccc(NC(=O)Nc2cccc(C(=O)Nc3cc(C(=O)Nc4ccc(S(=O)(=O)[O-])c5cc(S(=O)(=O)[O-])cc(S(=O)(=O)[O-])c45)ccc3C)c2)c1.[Na+].[Na+].[Na+].[Na+].[Na+].[Na+] [Suramin sodium salt, reference compound]",Inhibition at 20 µM [%],"AspH activity, fixed compound concentration 20 μM, initial LOPAC screen, 0.5%v/v DMSO",103.3%
same,% conversion,[2],1.22%
C[C@]12CCC(=O)C=C1CC[C@@H]1[C@@H]2CC[C@@]2(C)[C@H]1CC[C@]2(O)C(=O)CO [Cortexolone],% conversion,[2],39.11%
O=C(O)CN(CCOCCOCCN(CC(=O)O)CC(=O)O)CC(=O)O [EGTA],Plate 2 (% conversion),[3],38.29%
same,Plate 2 (% inhibition),[4],-6.96%
10058-F4,Plate 1 (% conversion),,30.76%
same,Plate 1 (% inhibition),,15.22%
CCN1CCCC1CNC(=O)c1cc(S(=O)(=O)CC)c(N)cc1OC (stereo not shown) [Amisulpride],% conversion,[2],40.99%
same,inhibition at 20 µM,[7],-13.2%
Clc1cnc(Oc2ccc(Oc3ncc(Cl)cc3Cl)cc2)c(Cl)c1 [TCPOBOP],% conversion,,30.30%
CNCC[C@@H](Oc1ccccc1C)c1ccccc1 [Tomoxetine],% conversion,[2],38.97%
same,inhibition at 20 µM,[7],-7.33%
N=C(N)SCCc1ccc(OCc2ccc([N+](=O)[O-])cc2)cc1 [KB-R7493],% inhibition,[1],-22.55%
same,% conversion,[2],44.17%
COC(=O)C1=C(C)NC(C)=C(C(=O)OCCN(C)Cc2ccccc2)C1c1cccc([N+](=O)[O-])c1 (stereo not shown) [Nicardipine hydrochloride],Plate 3 (% conversion),[8],44.76%
"Oc1cccc2c(O)nccc12 [1,5-Isoquinolinediol]",Plate 3 (% conversion),[8],40.11%
C[N+]1(C)C2CCC1CC(OC(=O)c1c[nH]c3ccccc13)C2.[I-] (stereo not shown),% conversion,[2],36.85%
COC(=O)C1=C(C)NC(C)=C(C(=O)O[C@@H]2CCCN(Cc3ccccc3)C2)[C@@H]1c1cccc([N+](=O)[O-])c1.Cl (racemic) [Benidipine hydrochloride],Plate 2 (% conversion),[3],31.43%
same,Plate 2 (% inhibition),[4],13.51%
